Broadly, the melting point is the temperature of the solid-liquid transition. `CC(O)(C(=O)O)c1cccc(OCc2ccc3ccccc3c2)c1` (single isomer, unassigned; (-)) yielded a melting point of 104 to 106 °C. Next, `COC(=O)c1sc2ccc(NC(C)=O)cc2c1N`: 248 °C; `CCCCOCCOc1ccc(-c2ccc3c(c2)C=C(C(=O)Nc2ccc(O)cc2)CCN3CC(C)C)cc1`: 155 to 157 °C. For `CCCCc1c(/C=C/C(=O)Oc2ccc([N+](=O)[O-])cc2)ccc2ccc(OC)cc12`, the melting point was 114 to 115 °C.

In turn, `COc1ccccc1P(CC(CCCCCCO)CP(c1ccccc1OC)c1ccccc1OC)c1ccccc1OC` returned a melting point of 47 to 50 °C. `Nc1nc2c(ncn2C(c2ccccc2)(c2ccccc2)c2ccccc2)c(=O)[nH]1`: the melting point was 268 to 270 °C. In the case of `CCOc1cc(NCCO)c([N+](=O)[O-])cc1O`, the melting point turned out to be 180 °C. `O=C1Nc2ccccc2SC1CCBr` (configuration not stated) registered a melting point of 151 to 152 °C.

`CCN1CCN(CC)c2cc([N+](=O)[O-])ccc2C1=O`: the melting point is 79 to 80 °C.

In the case of `CCOC(=O)c1cn(-c2cccc(Oc3ccc([N+](=O)[O-])cc3)c2)cn1`, the melting point is 162 to 163 °C. Next, `COc1ccc(-c2nc(N)ncc2-c2ccc(=O)n(C)n2)cc1OC`: 232 °C; `CN1C(=O)CC[C@]2(C)c3ccc(-c4cccnc4)cc3CC[C@@H]12`: 135 °C. For the molecule `CS(=O)(=O)Nc1n[nH]c(-c2ccncc2)c1-c1ccc(F)cc1`, the melting point lay within 168 to 170 °C. Turning to `Cc1c(-c2ccncc2)sc(-c2ccncc2)c1C(F)F`, the melting point was 132 to 133 °C. Molecule `CN(C)CCN(CCC12CC3CC(CC(C3)C1)C2)C(=O)NCCCc1ccncc1` registered a melting point of 104 to 106 °C. Next, `O=C(O)c1ccccc1COC1CCn2c(CCc3ccccc3)nc3cccc1c32` (configuration not stated): 154 to 155 °C. Molecule `COc1ccc(CNc2cccc3nc(-c4cccc(Cl)c4)oc23)cc1OC1CCCC1` came in with a melting point of 133 to 134 °C. On to `CCOC(=O)C1=C(C)NC(C)=C([N+](=O)[O-])C1c1cccnc1` (configuration not stated), for which the melting point amounted to 264 °C. The same measure for `COc1cc2ncnc(N3CCC(CCN4C=CC=NS4(=O)=O)CC3)c2cc1OC`: 176 to 178 °C; for `CC1CCn2c(nc(-c3ccncc3)cc2=O)N1` (configuration not stated): 245 to 247 °C; for `NC(=O)c1c(NC(=O)C2CC2)sc2c(O)c(Br)ccc12`: 235 to 236 °C.

In turn, `COCCn1c(C)nc2cnc3ccccc3c21` yielded a melting point of 128 to 130 °C. For the molecule `CCC[C@](CC=O)(CCc1ccccc1)OCOc1ccc(-c2ccccc2)cc1`, the melting point was in the range of 47 to 48.5 °C.

As to `COC(=O)c1cccc2c1cc1n2CCCC1`, the melting point lay within 102 to 103 °C. `Clc1ccc(C2CCc3cc(Cl)ccc3O2)cc1` (configuration not stated) came in with a melting point of 99 to 100 °C. The same measure for `Cc1cc(C)nc(-c2ncc([N+](=O)[O-])n2C)n1`: 148 to 150 °C.

Take `CNC(=O)N(O)CCNC(=O)c1cccc(Oc2ccccc2)c1`: the melting point is 161 to 162 °C. As for `CC1(C)C(=O)Oc2ccc3ccc(C=O)cc3c21`, the melting point lay in the range of 135 to 137 °C. Consider `Cc1cc(C)cc(CC(=O)Nc2[nH]c(=O)[nH]c(=O)c2C(C)C)c1`, for which the melting point fell in the range of 126 to 127 °C. On to `CCn1c(=O)c(-c2ccc3ccccc3c2)cc2cnc(Nc3ccccc3)nc21`, for which the melting point lay within 254 to 256 °C. Next, `CN(C)Cc1nnc(CO)n1-c1ccc(Cl)cc1C(=O)c1ccccc1Cl`: 138 to 141 °C; `N#Cc1c(Cl)cc(OCc2ccncc2)cc1OC(C(=O)O)c1ccccc1Cl` (racemic): 165 to 167 °C.

Consider `CN(C(=O)c1ccccc1C(c1ccc(O)cc1)c1ccc(O)cc1)c1ccccc1`, for which the melting point is 246 to 247 °C. Next, `CCOc1cc(-n2nc(C)c(Cl)c2C)c(F)cc1Cl`: 106 to 108 °C; `CN(O)C(=O)NCCc1ccc2c(c1)OCO2`: 99 to 100 °C; `CC(=O)OCC(=O)C1(O)C(C)CC2C3CCC4=CC(=O)C=CC4(C)C3=CCC21C` (configuration not stated): 202 to 205 °C. The same measure for `CC(C)n1c(=O)sc2cc(N)ccc21`: 146 to 148 °C. In turn, `CCNc1nc(NCc2ccc(NC(=O)C3CCN(Cc4ccccc4)CC3)cc2)c2ccc(C)cc2n1` displayed a melting point of 55 °C. In the case of `Cc1c(NCCNCC(O)COc2ccccc2)c(=O)n(C)c(=O)n1C` (configuration not stated), the melting point was 92 to 94 °C. In turn, `COc1ccc2c3c1C(=O)CC3CCO2` (configuration not stated) had a melting point of 122 to 124 °C.

Molecule `CCCc1c(OCCCOc2ccc(CC(=O)OC)cc2Br)ccc(C(C)=O)c1O` registered a melting point of 91 to 92 °C. Molecule `C=CCN1CCC2(CC1)c1ccccc1C(=O)c1c(OC)cccc12` showed a melting point of 115 to 117 °C. `CCOC(=O)c1ncc2[nH]c3ccc(Cl)cc3c2c1C`: the melting point is 225 to 228 °C. In turn, `COc1ccc(NC(=N)c2ccc(SC)cc2)cc1` came in with a melting point of 166 to 168 °C. In turn, `O=c1cc(OCc2ccccc2)c2ccc(O)cc2o1` showed a melting point of 234 °C.

In the case of `Cc1ccc(Cn2cc(CC(=O)O)c3cc(-c4ccc(OC(F)(F)F)cc4)ccc32)cc1`, the melting point was 62 to 63 °C. For the molecule `O=C(O)c1cccc(-c2ccc(F)c3cc(Cc4ccc(F)c(F)c4)sc23)c1`, the melting point was in the range of 224 to 225 °C.

`COc1c(Cl)cc(Cl)cc1-n1c(=O)[nH]c2ccccc21` gave a melting point of 202 to 203 °C. Turning to `O=C1CCc2c(-c3ccncc3)sc(-c3ccncc3)c21`, the melting point was in the range of 168 to 170 °C. `Cn1ncc2c1-c1c(Oc3ccc4c(c3)OCO4)sc(C#N)c1CC2`: the melting point is 132 to 134 °C. Next, `O=[N+]([O-])c1cccc2c1ccn2S(=O)(=O)c1cccc2ccccc12`: 156 to 157 °C. In turn, `CC(C)(C)OC(=O)N[C@H](Cc1ccc(CC(F)(F)C(F)(F)F)cc1)[C@@H](O)c1cccc(Cl)c1` (racemic) came in with a melting point of 156 to 157 °C. With `CCNC(=O)CC1CCN(Cc2cnc3cc(NC(=O)c4ccc(-c5ccc(F)cc5)cc4)ccc3c2)CC1`, the melting point lay within 224 to 227 °C.

For `COCC1(N2C(=O)NC(=O)C2=O)C=CC=C(OC2CC(F)CC2Cl)C1` (configuration not stated), the melting point was 90 to 91 °C.

As for `CC(O)(C(=O)NCCC(F)(F)F)C(=O)NC1C(=O)N(CCO)c2ccccc2-c2ccccc21` (configuration not stated), the melting point is 59 to 62 °C. `CCC(CC)(CCC#N)C(NC(=O)c1ccc(Cl)cc1)Nc1c(Nc2cccnc2)c(=O)c1=O` (configuration not stated) returned a melting point of 242 to 243 °C.

The molecule `COC(=O)CCC(C)C1CCC2C3CCC4CC(N)CCC4(C)C3CC(=O)C12C` (configuration not stated) gave a melting point of 129 to 130 °C. Molecule `CCOc1cc(-n2c(=O)cc(C(F)(F)F)n(C)c2=O)c(F)cc1Cl` came in with a melting point of 118 to 121 °C. The molecule `O=C(O)COc1cccc2c1CCc1sc(S(=O)(=O)C(c3ccc(F)cc3)c3ccc(F)cc3)nc1-2` displayed a melting point of 186 to 188 °C. In the case of `O=C(O)Cc1nn(-c2nc3c(Cc4ccc5scnc5c4)cccc3s2)c(=O)c2ccccc12`, the melting point is 203 to 204 °C. Regarding `O=C1NC2(CCCCC2)Sc2ccccc21`, the melting point was 193 to 195 °C.

The molecule `O=C(O)C1CSC(c2ccccc2OCC2CCC(CO[N+](=O)[O-])CC2)N1` (configuration not stated) yielded a melting point of 108 to 111 °C.

Source of the values: a melting point compilation (Tetko et al.; mined from patent text by program, amines drawn as free bases though some values may be those of a salt).
